Data as given in ChEMBL document CHEMBL1201862, “PubChem BioAssay data set” (2004).
Structures can show the parent of a compound that is named as a salt. Active and inactive are the calls of the source.

Key:
Fibrinogen beta chain [1] = target: T1, Fibrinogen beta chain (Homo sapiens, UniProt P02675); assay: Fluorescence polarization-based biochemical high throughput dose response assay to identify inhibitors that disrupt the binding of a cyclic peptide (Tn7) to the fibrin proteolytic product D-Dimer and fragment E complex [DD(E )].
Nonstructural protein 1 = Nonstructural protein 1 (Influenza A virus, UniProt Q194T2); type: functional, Influenza A virus (A/California/07/2009(H1N1))
cells [2] = type: functional
[3] = viability of HCT116 lacking mutant beta-catenin – cell-based, human colon tumor, dose response (AID 1045); type: functional;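 also: HCT116 colon tumor cells with beta catenin knocked out; cells exposed to compound for 60 hours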
[4] = Luminescence Cell-Based Dose Confirmation HTS to Identify Activators of 5'UTR Stem-Loop Driven Alpha-Synuclein mRNA Translation in H4 Neuroglioblastoma Cells. [Related pubchem assays: 1829 (Project Summary), 1814 (Primary HTS)]; type: functional
[5] = target: T2, Sentrin-specific protease 8 (Homo sapiens, UniProt Q96LD8); type: functional
T2 sequence (Q96LD8 whole entry): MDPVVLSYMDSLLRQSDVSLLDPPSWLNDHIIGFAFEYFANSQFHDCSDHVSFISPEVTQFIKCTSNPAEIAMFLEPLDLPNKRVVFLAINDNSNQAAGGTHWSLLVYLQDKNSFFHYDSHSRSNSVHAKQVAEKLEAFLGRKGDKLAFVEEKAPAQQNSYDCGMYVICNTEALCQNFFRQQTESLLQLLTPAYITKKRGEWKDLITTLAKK

[6] = target: T2, Sentrin-specific protease 8; type: functional; remark: listed apart in the source
[7] = viability of PTEN-deleted HCT116 cells – cell-based, HCT116 PTEN knockout, dose response (AID 1047); type: functional;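 also: HCT116 colon tumor cells with PTEN knocked out; cells exposed to compound for 60 hours before readout; potency for loss of cell viability measured by luminescence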
[8] = THP-1 cell cytotoxicity, dose response, cytotoxicity control for non-replicating M. tuberculosis project (AID 489025); type: functional
[9] = Vero E6 cell cytotoxicity, dose response, cytotoxicity control for non-replicating M. tuberculosis project, secondary assay (AID 492998); type: functional, VeroE6; conditions: Vero C1008
[10] = viability loss of HPDE-C7K cells – cell-based, fluorescence, HTS, primary screen (AID 431); type: functional; conditions: Homo sapiens
H4 = assay: Luminescence Cell-Based Dose Response HTS to Identify Activators of 5'UTR Stem-Loop Driven Prion Protein mRNA Translation in H4 Neuroglioblastoma Cells. [Related pubchem assays: 1829 (Project Summary), 1814 (Primary HTS)]; type: functional; conditions: Homo sapiens
[11] = HPDE-C7 pancreatic duct cell viability loss – fluorescence, HTS (AID 430); type: functional, cell-based; conditions: Homo sapiens
Fibrinogen beta chain [12] = target: T1, Fibrinogen beta chain; assay: Fluorescence polarization-based biochemical high throughput dose response assay to identify inhibitors that disrupt the binding of a cyclic peptide (Tn6) to the fibrin proteolytic product D-Dimer and fragment E complex [DD(E )].
[13] = target: NAD-dependent protein deacylase sirtuin-5, mitochondrial (Homo sapiens, UniProt Q9NXA8); assay: sirtuin-5 deacylation blockers, concentration series – biochemical, fluorescence imaging, cherry-pick, set 5, dose response (AID 720591);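 also: desuccinylation of succinyl peptide AMC substrate read as fluorescence after trypsin release; potency of inhibitors that lower fluorescence and may act on trypsin instead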
[14] = OV-90 cell viability loss – plate reader, dry powder, SA8, PAX8 inhibitor project, dose response (AID 743149); type: functional, cell-based
[15] = OVCAR-3 cell viability loss – plate reader, dry powder samples, PAX8 inhibitor project, dose response (AID 743044); type: functional, cell-based
[16] = PAX5 cellular inhibition readout – cell-based, plate reader, dry powder samples, selectivity assay for PAX8 inhibitor project, dose response (AID 743047); type: functional;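 also: HEK293 cells carrying a Pax5 driven CD19 promoter luciferase reporter; potency of inhibitors that lower reporter luminescence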
[17] = inhibitors acting on PAX2 in cells – cell-based, plate reader, dry powder samples, selectivity assay for PAX8 inhibitor project, dose response (AID 743048); type: functional;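 also: HEK293 cells carrying a WT1 promoter luciferase reporter driven by expressed Pax2; potency is for inhibition of Pax2 driven reporter signal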
[18] = COV362 cell viability loss – plate reader, dry powder, SA12, cytotoxicity control for PAX8 inhibitor project, dose response (AID 743144); type: functional, cell-based
[19] = COV434 cell viability loss – plate reader, dry powder, SA7, cytotoxicity control for PAX8 inhibitor project, dose response (AID 743145); type: functional, cell-based
Paired box protein Pax-8 = Paired box protein Pax-8 (Homo sapiens, UniProt Q06710); assay: PAX8 transcriptional activity inhibition in RMG-I – RMG-I cells, luciferase, cherry-pick, dose response (AID 687027); type: functional, cell-based;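 also: luciferase reporter driven by Pax8 target thyroperoxidase promoter measured by SteadyGlo luminescence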
[20] = PAX8-dependent cell viability loss – plate reader, dry powder, dose response (AID 743049); type: functional, cell-based
[21] = OVCAR4 cell viability loss – plate reader, dry powder, SA11, cytotoxicity control for PAX8 inhibitor project, dose response (AID 743150); type: functional, cell-based; conditions: OVCAR-4
[22] = target: G-protein coupled receptor 183 (Homo sapiens, UniProt P32249); assay: SAR confirmation of small molecule antagonists of the EBI2 receptor via a luminescent beta-arrestin assa.; type: functional
[23] = HCT116 cell viability decrease, GSK3B pretreatment – CellTiter-Glo, IC50, dose response (AID 1117339); type: functional; conditions: HCT-116
[24] = IC50 of insulin release inhibition, rat insulinoma INS-1E line, 5 mM glucose, cell-based (AID 1117331); type: functional
[25] = SNU-C1 cell viability reduction, dose response, CellTiter-Glo luminescence (AID 1117323); type: functional, cell-based
cells [26] = type: functional, cell-based; conditions: INS-1E
[27] = rise of 4N DNA cells, HeLa – IC50, dose response (AID 1117351); type: functional, cell-based
[28] = RKO cell viability reduction, dose response, CellTiter-Glo luminescence (AID 1117322); type: functional
[29] = rise of 2N DNA cells, HeLa – IC50, dose response (AID 1117349); type: functional, cell-based
[30] = CellTiter-Glo luminescence survival assay, SW480 colon tumor line, concentration-response curve, half-maximal inhibitory concentration (AID 1117338); type: functional

T1 sequence (P02675 whole entry, the tested form may be a part): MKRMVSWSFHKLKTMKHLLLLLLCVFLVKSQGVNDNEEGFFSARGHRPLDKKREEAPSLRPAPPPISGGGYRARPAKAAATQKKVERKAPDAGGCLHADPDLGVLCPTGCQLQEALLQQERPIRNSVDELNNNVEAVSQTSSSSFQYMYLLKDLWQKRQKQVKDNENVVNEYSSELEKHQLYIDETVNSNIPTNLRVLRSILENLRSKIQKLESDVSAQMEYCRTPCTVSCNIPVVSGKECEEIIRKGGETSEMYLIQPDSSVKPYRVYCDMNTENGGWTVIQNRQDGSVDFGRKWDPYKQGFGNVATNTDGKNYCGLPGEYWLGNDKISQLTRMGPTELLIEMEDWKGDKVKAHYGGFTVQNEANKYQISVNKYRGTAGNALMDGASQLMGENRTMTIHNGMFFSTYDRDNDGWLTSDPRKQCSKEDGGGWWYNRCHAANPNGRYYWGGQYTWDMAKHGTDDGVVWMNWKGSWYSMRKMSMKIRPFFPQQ
Sequence of Paired box protein Pax-8 (Q06710 whole entry): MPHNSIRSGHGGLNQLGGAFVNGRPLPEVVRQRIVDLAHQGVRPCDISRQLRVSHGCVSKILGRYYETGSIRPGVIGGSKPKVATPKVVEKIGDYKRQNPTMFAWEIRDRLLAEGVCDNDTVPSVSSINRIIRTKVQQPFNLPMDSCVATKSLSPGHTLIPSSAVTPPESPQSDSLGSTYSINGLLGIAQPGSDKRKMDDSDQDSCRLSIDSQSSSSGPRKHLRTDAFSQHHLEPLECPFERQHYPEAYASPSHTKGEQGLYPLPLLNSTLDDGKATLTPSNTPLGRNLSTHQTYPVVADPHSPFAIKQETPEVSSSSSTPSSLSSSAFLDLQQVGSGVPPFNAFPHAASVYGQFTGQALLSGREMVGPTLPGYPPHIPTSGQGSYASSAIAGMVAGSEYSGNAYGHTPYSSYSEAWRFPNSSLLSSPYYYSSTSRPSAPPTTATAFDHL
Sequence of Nonstructural protein 1 (Q194T2 whole entry): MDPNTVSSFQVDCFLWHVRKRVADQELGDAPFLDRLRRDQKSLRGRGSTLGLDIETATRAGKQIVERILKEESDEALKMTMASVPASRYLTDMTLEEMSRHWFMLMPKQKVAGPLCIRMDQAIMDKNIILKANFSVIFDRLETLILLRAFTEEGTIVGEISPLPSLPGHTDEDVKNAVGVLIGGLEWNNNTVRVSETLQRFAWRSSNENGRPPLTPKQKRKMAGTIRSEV
Sequence of NAD-dependent protein deacylase sirtuin-5, mitochondrial (Q9NXA8 whole entry): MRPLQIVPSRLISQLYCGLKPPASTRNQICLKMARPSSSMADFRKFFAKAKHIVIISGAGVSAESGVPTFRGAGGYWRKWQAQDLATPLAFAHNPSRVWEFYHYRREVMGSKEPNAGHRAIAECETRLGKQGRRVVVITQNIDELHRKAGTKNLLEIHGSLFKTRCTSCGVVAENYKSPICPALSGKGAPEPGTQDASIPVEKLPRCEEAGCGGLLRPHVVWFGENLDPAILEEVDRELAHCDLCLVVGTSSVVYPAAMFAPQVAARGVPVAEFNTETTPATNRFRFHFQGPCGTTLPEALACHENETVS
Sequence of G-protein coupled receptor 183 (P32249 whole entry): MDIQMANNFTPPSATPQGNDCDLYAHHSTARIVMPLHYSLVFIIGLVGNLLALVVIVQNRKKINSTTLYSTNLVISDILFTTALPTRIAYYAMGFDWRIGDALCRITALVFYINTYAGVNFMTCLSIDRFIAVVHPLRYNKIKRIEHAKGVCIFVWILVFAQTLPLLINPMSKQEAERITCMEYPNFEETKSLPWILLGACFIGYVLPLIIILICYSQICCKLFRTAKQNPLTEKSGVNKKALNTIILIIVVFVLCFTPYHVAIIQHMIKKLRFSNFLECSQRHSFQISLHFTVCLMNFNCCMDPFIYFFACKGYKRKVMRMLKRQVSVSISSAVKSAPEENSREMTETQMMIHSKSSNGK

N#CC(C#N)=c1ccc2c(c1)NC1(CCCCC1)N=2
IC50 (Fibrinogen beta chain [1]): > 83.3 µM (inactive) | IC50 (Nonstructural protein 1): 15.6 µM (active) | IC50 (cells [2]): 10.7 µM (active) | EC50 [3]: 1.23 µM (active) | EC50 [4]: 1.55 µM (active) | IC50 [5]: > 100 µM (inactive) | IC50 [6]: 3.45 µM (active) | EC50 [7]: 1.37 µM (active) | CC50 [8]: 6.67 µM (active) | CC50 [9]: 15.4 µM (active) | EC50 [10]: 9.91 µM (active) | EC50 (H4): 5.95 µM (active) | EC50 [11]: 6.5 µM (active) | IC50 (Fibrinogen beta chain [12]): 11.3 µM (inactive)

C=CCN(c1ccccc1)S(=O)(=O)c1cccc(C(=O)Nc2ccncc2)c1
AC50 [13]: > 30 µM (inactive)

COc1ccc(NC(=O)Nc2ccc3c(c2)C(=O)N([C@H](C)CO)C[C@H](C)[C@H](CN(C)Cc2ccc(C(F)(F)F)cc2)OCCCC[C@H](C)O3)cc1
AC50 [14]: 23.6 µM (active) | AC50 [15]: 24 µM (active) | AC50 [16]: 22.9 µM (active) | AC50 [17]: 18.4 µM (active) | AC50 [18]: 26 µM (active) | AC50 [19]: 27.7 µM (active) | AC50 (Paired box protein Pax-8): 9.32 µM (active) | AC50 [20]: 22.4 µM (active) | AC50 [21]: 20.4 µM (active)

O=C(/C=C/c1ccc(F)cc1)N1CCN(S(=O)(=O)CCc2ccccc2)CC1
IC50 [22]: 0.00327 µM (active)

CCN(CC)CCCC(C)Nc1c2ccc(Cl)cc2nc2ccc(OC)cc12 (stereo not drawn) [QUINACRINE HYDROCHLORIDE]
IC50 [23]: 4.48 µM (active) | IC50 [24]: 4.07 µM (active) | IC50 [25]: 3.84 µM (active) | IC50 (cells [26]): > 33.3 µM (inactive) | IC50 [27]: > 10 µM (inactive) | IC50 [28]: 3.42 µM (active) | IC50 [29]: 2.16 µM (active) | IC50 [30]: 3.6 µM (active)
